The record followed here is patent US10301292B2, “Bicyclic compound” (Takeda Pharmaceutical Company Limited, priority 2014, dated 2019).

Structures are written as SMILES.

For one experiment, the target named is T1, human ACC1 (Homo sapiens, UniProt Q13085).
T1 construct: His tag (from vector pFAST-BacHTc; protein captured on Ni-NTA) (N); made in house; host or cells: SF-9 insect cells, recombinant baculovirus BAC-ACC1
As to the kind of experiment: Measurement of ACC1 inhibitory activity (Malonyl-CoA production, RapidFire-mass spectrometry). It counts as biochemical. The conditions noted are these: 10 μM of the test compound; recombinant human ACC1; read-out: ACC1 inhibitory rate (%) at 10 μM. The method, then:
(1) Cloning of Human ACC1 Gene and Preparation of Recombinant Baculovirus
Human ACC1 gene was cloned by PCR using a human liver cDNA library (Clontech) as a template and Primer 1 and Primer 2 shown below. Primer 1 and Primer 2 were prepared by adding SalI, NotI restriction enzyme recognition sequences based on the information of the base sequence of human ACC1 gene (Genbank Accession U19822).
PCR was performed using Pyrobest DNA polymerase (TAKARA BIO INC.). The obtained PCR product was cloned to pT7 Blue vector (Novagen) and after confirmation of the base sequence, digested with restriction enzymes SalI and XbaI. The obtained DNA fragment was inserted into pFAST-BacHTc (Invitrogen) digested with restriction enzymes SalI and XbaI to give expression plasmid ACC1/pFAST-BacHTc.
Using the expression plasmid ACC1/pFAST-BacHTc and BAC-TO-BAC Baculovirus Expression System (Invitrogen), virus stock BAC-ACC1 of recombinant Baculovirus was prepared.
(2) Preparation of ACC1 Protein
SF-9 cells (Invitrogen) were inoculated to a medium (10 L) for insect cells (Sf-900IISFM medium (Invitrogen) containing 5% fetal bovine serum (Trace), 50 mg/L Gentamicin (Wako Pure Chemical Industries, Ltd.), 0.1% Pluronic F-68 (Invitrogen)) at 1.0×10^6 cells/mL, and cultured with shaking in Wave Bioreactor (GE Healthcare) at 27° C., 20 rpm, rocking angle 10°, oxygen concentration 30%.
On day 2 of the culture, recombinant Baculovirus BAC-ACC1 was added, and the cells were cultured for 3 days. The culture medium was centrifuged at 4000×g for 10 min to give virus-infected cells. The cells were washed with phosphate buffered saline (Invitrogen) and centrifuged under the same conditions. The obtained cells were cryopreserved at −80° C.
The cryopreserved cells were thawed in ice and suspended in 800 mL of 25 mM HEPES buffer (pH 7.5) containing 10% Glycerol, 0.3 M NaCl, 1 mM EDTA, 25 mM Sodium β-Glycerophosphate and 1 mM Sodium Orthovanadate, and supplemented with Complete Protease Inhibitor (Roche). The obtained suspension was homogenized two times in a polytron homogenizer (Kinematica) at 20,000 rpm for 20 sec. The obtained cell disruption solution was clarified by centrifugation at 186,000×g for 60 min and the supernatant was passed through Ni-NTA Superflow Cartridges (5 mL) (QUIAGEN). Furthermore, it was washed with 25 mM HEPES buffer (pH 7.5) containing 20 mM Imidazole, 0.3 M NaCl, and eluted with 25 mM HEPES buffer (pH 7.5) containing 250 mM Imidazol, 0.3 M NaCl. The eluate was concentrated by Amicon Ultra-15 (Nihon Millipore K.K.) having a fraction molecular weight of 50K. The obtained concentrate was subjected to gel filtration with 50 mM HEPES buffer (pH 7.5) containing 10 mM MgCl2, 2 mM dithiothreitol, 10 mM tripotassium citrate, 0.3 M NaCl by using HiLoad 26/60 Superdex200 prep grade gel filtration column (GE Healthcare) to give ACC1. The obtained ACC1 was cryopreserved at −80° C.
(3) Measurement of ACC1 Inhibitory Activity
ACC1 obtained in the above-mentioned (2) was diluted with an enzyme reaction buffer (50 mM HEPES (pH 7.5), 10 mM MgCl2, 10 mM Tripottasium Citrate, 2 mM Dithiothreitol, 0.001% Fatty acid free BSA) to a concentration of 0.2 μg/ml, and the mixture was added to each well of a 384 well assay plate by 10 μl. A test compound dissolved in dimethyl sulfoxide (DMSO) was diluted with an enzyme reaction buffer and the resulting solution (5 μl) was added to each well. The mixture was incubated at room temperature for 60 min. Then, a substrate solution (50 mM KHCO3, 200 μM ATP, 200 μM Acetyl-CoA, 5 μl) was added to each well, and the mixture was reacted at room temperature for 30 min. The reaction was quenched by adding a reaction quenching liquid (1.3% formic acid, 0.2 μM Malonyl-^13C3-CoA) by 60 μL each to the obtained reaction mixtures (test compound addition group).
In addition, a reaction was performed in the same manner as above and without adding the test compound (test compound non-addition group). […]

The subject of a further experiment is HCT116 cells. The experiment in a line: Growth inhibitory activity on HCT116 cell (CellTiter-Glo). It counts as cell-based. The conditions noted are these: Homo sapiens, HCT-116, 72 h, table head: 10 μM (text b2498: 1 μM), 3 days incubation, read-out: HCT116 cell proliferation inhibitory rate (%) at 10 μM. The method, then:
The growth inhibitory activity of the compound on HCT116 cell was evaluated by the following method.
HCT116 cells were seeded in a 384 well blackplate at 900 cells/30 μL/well, and maintained in an RPMI medium (Wako)) containing an assay medium (2% fetal bovine serum, 50 Unit/mL penicillin, 50 μg/mL streptomycin (Invitrogen). The next day, a test compound dissolved in dimethyl sulfoxide (DMSO) was diluted with the assay medium, and the obtained compound solution was added by 10 μL to each well of a plate containing HCT116 cells and incubated at 37° C., 5% CO2 (test compound addition group).
A similar reaction was performed without adding a test compound (test compound non-addition group).
Furthermore, a similar reaction was performed under the conditions without adding HCT116 cell and a test compound (control group).
After 3 days, 20 μL of a CellTiter-Glo reagent (Promega KK) was added to the well, and the mixture was stirred for 10 min. Thereafter, the luminescence value of each well was measured by the EnVision™ multilabel counter (Perkin Elmer Inc.).
The HCT116 cell proliferation inhibitory rate (%) of the test compound was determined by the following calculation formula. (1−(luminescence of test compound addition group−luminescence of control group)÷(luminescence of test compound nonaddition group−luminescence of control group))×100

As to `CC(NC(=O)N(C)C)c1ccc2nc(-c3ccc(Oc4cccc(OCC5CC5)c4)nc3)oc2c1` (stereo not drawn) [Example 101, 3-(1-(2-(6-(3-(cyclopropylmethoxy)phenoxy)pyridin-3-yl)-1,3-benzoxazol-6-yl)ethyl)-1,1-dimethylurea], the inhibition at 10 µM was found to be 96% at human ACC1 and 30% in the experiment on HCT116 cells.

Consider `CCCn1cc(Oc2ccc(-c3nc4ccc(C(C)NC(C)=O)cc4o3)cn2)ccc1=O` (stereo not drawn) [Example 102, N-(1-(2-(6-((6-oxo-1-propyl-1,6-dihydropyridin-3-yl)oxy)pyridin-3-yl)-1,3-benzoxazol-6-yl)ethyl)acetamide], for which the inhibition at 10 µM at human ACC1 worked out at 94%; with HCT116 cells, 30%.

As for `CC(=O)NC(C)c1cc2cc(-c3cnc(Oc4cccc(OCC5CC5)c4)cn3)ccc2o1` (stereo not drawn) [Example 103, N-(1-(5-(5-(3-(cyclopropylmethoxy)phenoxy)pyrazin-2-yl)-1-benzofuran-2-yl)ethyl)acetamide], the inhibition at 10 µM at human ACC1 worked out at 100%; in the experiment with HCT116 cells, 29%.

With `CC(=O)NC(C)c1ccc2nc(-c3ccc(Oc4cccc(OCC5CC5)c4)cc3)oc2n1` (stereo not drawn) [Example 104, N-(1-(2-(4-(3-(cyclopropylmethoxy)phenoxy)phenyl)[1,3]oxazolo[5,4-b]pyridin-5-yl)ethyl)acetamide], the inhibition at 10 µM at human ACC1 was found to be 98%; with HCT116 cells, 30%.

Take `CCCCn1cc(Oc2ccc(-c3nc4ccc(C(C)NC(C)=O)cc4o3)cn2)ccc1=O` (stereo not drawn) [Example 105, N-(1-(2-(6-((1-butyl-6-oxo-1,6-dihydropyridin-3-yl)oxy)pyridin-3-yl)-1,3-benzoxazol-6-yl)ethyl)acetamide]: the inhibition at 10 µM worked out at 96% at human ACC1 and 46% with HCT116 cells.

With `CC(NC(N)=O)c1ccc2nc(-c3ccc(Oc4cncc(OCC5CC5)c4)nc3)oc2c1` (stereo not drawn) [Example 106, 1-(1-(2-(6-((5-(cyclopropylmethoxy)pyridin-3-yl)oxy)pyridin-3-yl)-1,3-benzoxazol-6-yl)ethyl)urea], the figures for the inhibition at 10 µM on human ACC1 and in the experiment with HCT116 cells were 103% and 33%, respectively.

`CC(NC(N)=O)c1ccc2nc(-c3ccc(Oc4cccc(OCC(C)(F)F)c4)nc3)oc2c1` (stereo not drawn) [Example 107, 1-(1-(2-(6-(3-(2,2-difluoropropoxy)phenoxy)pyridin-3-yl)-1,3-benzoxazol-6-yl)ethyl)urea]: the inhibition at 10 µM at human ACC1 was 97%; with HCT116 cells it was 32%.

As to `CC(NC(N)=O)c1ccc2nc(-c3ccc(Oc4cccc(OCC5CC5)c4)nc3)oc2c1F` (stereo not drawn) [Example 108, 1-(1-(2-(6-(3-(cyclopropylmethoxy)phenoxy)pyridin-3-yl)-7-fluoro-1,3-benzoxazol-6-yl)ethyl)urea], the inhibition at 10 µM on human ACC1 came to 100%; in the experiment on HCT116 cells, 36%.

`CC(NC(N)=O)c1ccc2nc(-c3cnc(Oc4cccc(OCC5CC5)c4)cn3)oc2c1` (stereo not drawn) [Example 109, 1-(1-(2-(5-(3-(cyclopropylmethoxy)phenoxy)pyrazin-2-yl)-1,3-benzoxazol-6-yl)ethyl)urea]: the results for the inhibition at 10 µM on human ACC1 and with HCT116 cells were 97% and 27%, respectively.
